Source: patent US20050229276A1, “Method of producing cyclamen root tuber and method of proliferating cyclamen using the same” (Tokyo University of Agricultural, priority 2002, published 2005)

Test system: cyclamen root tuber
Assay: Germination and rooting of cut-off root tubers in solid media
Type: in vivo
Set-up: Germination rate / Rooting rate: unit not given here
Conditions: NAA 0.05 mg/l
Experimental: The cyclamen root tuber obtained was cut off from the parent body and planted in an experimental plot prepared by adding 30 to 90 g/l of sucrose, NAA and BA to the ⅓ MS medium as shown in Table 4.6 g/l of agar was added to the medium which was then sterilized in an autoclave to prepare a solid medium having a pH of 7.0. The culture test tube was left under illumination for 12 hours a day and in the dark for 12 hours. As a result, the root tubers germinated and rooted while enlarging.

[1] = BA 0.05 mg/l (second 0.05 block, r16), sucrose 30 g/l, 60-th day
[2] = BA 0.05 mg/l (second 0.05 block, r16), sucrose 30 g/l, 97-th day
[3] = BA 0.05 mg/l (second 0.05 block, r16), sucrose 30 g/l, 127-th day
[4] = BA 0.05 mg/l (second 0.05 block, r17), sucrose 50 g/l, 60-th day
[5] = BA 0.05 mg/l (second 0.05 block, r17), sucrose 50 g/l, 97-th day
[6] = BA 0.05 mg/l (second 0.05 block, r17), sucrose 50 g/l, 127-th day
[7] = BA 0.05 mg/l (second 0.05 block, r18), sucrose 70 g/l, 60-th day
[8] = BA 0.05 mg/l (second 0.05 block, r18), sucrose 70 g/l, 97-th day
[9] = BA 0.05 mg/l (second 0.05 block, r18), sucrose 70 g/l, 127-th day
[10] = BA 0.05 mg/l (second 0.05 block, r19), sucrose 90 g/l, 60-th day
[11] = BA 0.05 mg/l (second 0.05 block, r19), sucrose 90 g/l, 97-th day
[12] = BA 0.05 mg/l (second 0.05 block, r19), sucrose 90 g/l, 127-th day
[13] = BA 0.05 mg/l, sucrose 30 g/l, 60-th day
[14] = BA 0.05 mg/l, sucrose 30 g/l, 97-th day
[15] = BA 0.05 mg/l, sucrose 30 g/l, 127-th day
[16] = BA 0.05 mg/l, sucrose 50 g/l, 60-th day
[17] = BA 0.05 mg/l, sucrose 50 g/l, 97-th day
[18] = BA 0.05 mg/l, sucrose 50 g/l, 127-th day
[19] = BA 0.05 mg/l, sucrose 70 g/l, 60-th day
[20] = BA 0.05 mg/l, sucrose 70 g/l, 97-th day
[21] = BA 0.05 mg/l, sucrose 70 g/l, 127-th day
[22] = BA 0.05 mg/l, sucrose 90 g/l, 60-th day
[23] = BA 0.05 mg/l, sucrose 90 g/l, 97-th day
[24] = BA 0.05 mg/l, sucrose 90 g/l, 127-th day
[25] = BA 0.1 mg/l, sucrose 30 g/l, 60-th day
[26] = BA 0.1 mg/l, sucrose 30 g/l, 97-th day
[27] = BA 0.1 mg/l, sucrose 30 g/l, 127-th day
[28] = BA 0.1 mg/l, sucrose 50 g/l, 60-th day
[29] = BA 0.1 mg/l, sucrose 50 g/l, 97-th day
[30] = BA 0.1 mg/l, sucrose 50 g/l, 127-th day
[31] = BA 0.1 mg/l, sucrose 70 g/l, 60-th day
[32] = BA 0.1 mg/l, sucrose 70 g/l, 97-th day
[33] = BA 0.1 mg/l, sucrose 70 g/l, 127-th day
[34] = BA 0.1 mg/l, sucrose 90 g/l, 60-th day
[35] = BA 0.1 mg/l, sucrose 90 g/l, 97-th day
[36] = BA 0.1 mg/l, sucrose 90 g/l, 127-th day
[37] = BA 1.0 mg/l, sucrose 30 g/l, 60-th day
[38] = BA 1.0 mg/l, sucrose 30 g/l, 97-th day
[39] = BA 1.0 mg/l, sucrose 30 g/l, 127-th day
[40] = BA 1.0 mg/l, sucrose 50 g/l, 60-th day
[41] = BA 1.0 mg/l, sucrose 50 g/l, 97-th day
[42] = BA 1.0 mg/l, sucrose 50 g/l, 127-th day
[43] = BA 1.0 mg/l, sucrose 70 g/l, 60-th day
[44] = BA 1.0 mg/l, sucrose 70 g/l, 97-th day
[45] = BA 1.0 mg/l, sucrose 70 g/l, 127-th day
[46] = BA 1.0 mg/l, sucrose 90 g/l, 60-th day
[47] = BA 1.0 mg/l, sucrose 90 g/l, 97-th day
[48] = BA 1.0 mg/l, sucrose 90 g/l, 127-th day

c1ccc(CNc2ncnc3[nH]cnc23)cc1 [BA, benzylaminopurine]
2.68: Enlarging ratio [34]
3.28: Enlarging ratio [35] | Enlarging ratio [36]
4.03: Enlarging ratio [44]
2.40: Enlarging ratio [28]
3.23: Enlarging ratio [1]
2.17: Enlarging ratio [13]
60: Germination rate [5] | Germination rate [6] | Germination rate [11] | Germination rate [12] | Germination rate [17] | Germination rate [18] | Rooting rate [20] | Rooting rate [21] | Rooting rate [23] | Rooting rate [24] | Germination rate [26] | Germination rate [27] | Germination rate [30] | Rooting rate [30] | Rooting rate [45] | Germination rate [47] | Germination rate [48]
80: Germination rate [14] | Germination rate [15] | Rooting rate [17] | Rooting rate [18] | Rooting rate [26] | Rooting rate [27]
5.78: Enlarging ratio [12]
2.85: Enlarging ratio [5]
3.50: Enlarging ratio [38]
1.93: Enlarging ratio [22]
2.47: Enlarging ratio [15] | Enlarging ratio [32] | Enlarging ratio [48]
2.52: Enlarging ratio [4]
2.41: Enlarging ratio [14]
1.84: Enlarging ratio [46]
0: Rooting rate [4] | Rooting rate [5] | Germination rate [10] | Rooting rate [19] | Rooting rate [31] | Rooting rate [32] | Germination rate [34] | Germination rate [35] | Germination rate [37] | Rooting rate [37] | Rooting rate [38] | Rooting rate [39] | Rooting rate [40] | Germination rate [43]
3.97: Enlarging ratio [2]
4.02: Enlarging ratio [42]
2.73: Enlarging ratio [33]
3.95: Enlarging ratio [39]
2.67: Enlarging ratio [10]
4.23: Enlarging ratio [3] | Enlarging ratio [18]
2.27: Enlarging ratio [40]
20: Rooting rate [1] | Rooting rate [6] | Germination rate [7] | Rooting rate [7] | Rooting rate [8] | Rooting rate [9] | Rooting rate [10] | Rooting rate [11] | Rooting rate [12] | Germination rate [13] | Germination rate [16] | Rooting rate [16] | Rooting rate [22] | Germination rate [28] | Germination rate [31] | Rooting rate [33] | Germination rate [36] | Germination rate [40] | Rooting rate [41] | Rooting rate [42] | Rooting rate [43] | Germination rate [44] | Germination rate [45] | Rooting rate [46]
2.35: Enlarging ratio [26] | Enlarging ratio [27]
2.90: Enlarging ratio [29]
1.40: Enlarging ratio [31]
2.83: Enlarging ratio [16]
2.05: Enlarging ratio [25]
3.10: Enlarging ratio [30]
3.43: Enlarging ratio [17]
2.25: Enlarging ratio [37] | Enlarging ratio [43]
2.11: Enlarging ratio [23] | Enlarging ratio [24] | Enlarging ratio [47]
4.81: Enlarging ratio [45]
3.25: Enlarging ratio [6]
4.98: Enlarging ratio [11]
3.18: Enlarging ratio [41]
40: Germination rate [1] | Germination rate [2] | Rooting rate [2] | Germination rate [3] | Rooting rate [3] | Germination rate [4] | Germination rate [8] | Germination rate [9] | Rooting rate [13] | Rooting rate [14] | Rooting rate [15] | Germination rate [19] | Germination rate [20] | Germination rate [21] | Germination rate [22] | Germination rate [23] | Germination rate [24] | Germination rate [25] | Rooting rate [25] | Rooting rate [28] | Germination rate [29] | Rooting rate [29] | Germination rate [32] | Germination rate [33] | Rooting rate [34] | Rooting rate [35] | Rooting rate [36] | Germination rate [38] | Germination rate [39] | Germination rate [41] | Germination rate [42] | Rooting rate [44] | Germination rate [46] | Rooting rate [47] | Rooting rate [48]
